Patent US10919941B2, “Functional lipid constructs” (KODE BIOTECH LIMITED, priority 2007, dated 2021)
No end group written: not given here.

Columns and labels:
[1] = tested on: natural Mi III antibody reactive human serums; test: Positive serum reactivity of modified RBCs in the field; format: cell-based; set-up: key: 0 or ‘−’ no agglutination; 0 or ‘−’ no agglutination; 1+ or 3=very weak agglutination; 1+ or 3=very weak agglutination; 2+ or 5=weak agglutination; 2+ or 5=weak agglutination; 3+ or 8=moderate strong agglutination; 3+ or 8=moderate strong agglutination; 4+ or 10/12=strong agglutination; 4+ or 10/12=strong agglutination; 4+ or 10/12=strong agglutination; details: 22 at 50, 17 and 24 at 200 μg/ml; 3 h RT then 18 h 4° C.
Procedure: (§1) The suspensions are either: • 1. incubated for 2 hours at 37° C. before being washed and suspended in a cell medium for serological analysis at a concentration of 0.8 to 3% (Method 1); or • 2. incubated for 3 to 4 hours at room temperature (circa 25° C.) followed by 18 hours at 4° C. before being washed and suspended in a cell medium for serological analysis at a concentration of 0.8 to 3% (Method 2).
(§2) Serological reactions are graded or scored by either of two established systems (0 or ‘−’ no agglutination, 1+ or 3=very weak agglutination, 2+ or 5=weak agglutination, 3+ or 8=moderate strong agglutination, 4+ or 10/12=strong agglutination)

[2] = tested on: TAP1 serum (Taiwan Miltenberger antibody positive sample); test: Anti-MUT serum (TAP1) reactivity of modified RBCs (saline and AHG); format: cell-based, human; set-up: key: 0 or ‘−’ no agglutination; 0 or ‘−’ no agglutination; 1+ or 3=very weak agglutination; 1+ or 3=very weak agglutination; 2+ or 5=weak agglutination; 2+ or 5=weak agglutination; 3+ or 8=moderate strong agglutination; 3+ or 8=moderate strong agglutination; 4+ or 10/12=strong agglutination; 4+ or 10/12=strong agglutination; 4+ or 10/12=strong agglutination; details: construct 50 μg/ml
Procedure: as §1, §2

Substance: M24: DOPE peptide-lipid construct: Hil peptide EETGETGQLV, leader c, spacer CMG(2) (EETGETGQLVC; also: DOPE peptide-lipid construct via leader Cys, spacer CMG(2))
- score vs Mi III reactive serum 912485657-9 [1]: 0
- score vs Mi III reactive serum 914146821-8 [1]: 0
- score vs Mi III reactive serum 922390844-5 [1]: 0
- score vs Mi III reactive serum 926190919-0 [1]: 0
- score vs Mi III reactive serum 926555294-1 [1]: 0
- score vs Mi III reactive serum 927175131-4 [1]: 0
- score vs Mi III reactive serum 927299700-1 [1]: 0
- score vs Mi III reactive serum 927516053-2 [1]: 0
- score vs Mi III reactive serum 927619701-8 [1]: 0
- score vs Mi III reactive serum 932360876-4 [1]: 0
- score vs Mi III reactive serum 932467774-5 [1]: 0
- score vs Mi III reactive serum 932809044-1 [1]: 0
- score vs Mi III reactive serum 942223755-1 [1]: 0
- score vs Mi III reactive serum 942404708-4 (row interpreted Mur) [1]: 0
- score vs Mi III reactive serum 942404708-4 (row interpreted other) [1]: 0
- score vs Mi III reactive serum 942421413-0 [1]: 0
- score vs Mi III reactive serum 942423002-4 [1]: 3
- score vs Mi III reactive serum 942433813-3 [1]: 0
- score vs Mi III reactive serum 942433855-3 [1]: 8
- score vs Mi III reactive serum 942442720-2 [1]: 0
- score vs Mi III reactive serum 942448627-8 [1]: 5
- score vs Mi III reactive serum 942753165-4 [1]: 8
- score vs Mi III reactive serum 942762589-1 [1]: 3
- score vs Mi III reactive serum 9322338631 [1]: 0
- score vs Mi III reactive serum 9325490091 [1]: 0
- score vs Mi III reactive serum 9327986660 [1]: 0
- score vs Mi III reactive serum 9328118428 [1]: 5
- score vs Mi III reactive serum 9328154853 [1]: 3
- score vs Mi III reactive serum 9328791834 [1]: 0
- score vs Mi III reactive serum 9424248012 [1]: 0
- score vs Mi III reactive serum 9424292604 [1]: 5
- score vs Mi III reactive serum 9424396133 [1]: 0
- score vs Mi III reactive serum 9425256505 [1]: 8
- score vs Mi III reactive serum 9427455417 [1]: 5
- score vs Mi III reactive serum 9427613497 [1]: 0
- score vs Mi III reactive serum 9427615156 [1]: 0
- score vs Mi III reactive serum S-3 [1]: 5
- TAP 1 Serum, AHG score [2]: 0
- TAP 1 Serum, Saline score [2]: 0
